According to patent US10870627B2, “Salt of quinazoline derivative, preparation method therefor and application thereof” (SHANGHAI PHARMACEUTICALS HOLDING CO., LTD., priority 2016, dated 2020):
Like-named read-outs stand apart in the source and are kept apart here.

How the values were obtained:
[1] = Solid-state stability test; type: physicochemical
Description: An appropriate amount of the drugs were placed in the surface dish, spread to a thickness of 3-5 mm, and exposed in high temperature, high temperature and high humidity, illumination and oxidation conditions for 10 days respectively, and the solid-state characterization was performed. The purity and the number of impurities 0.05%) of the samples for testing were determined by HPLC, and compared with the samples on day 0. The exposure conditions are:
High temperature (an oven with T=60° C.);
Illumination (25° C., a 4500±500 lx light incubator);
Oxidation (25° C., a closed container containing urea hydrogen peroxide).

[2] = Solution stability test; type: physicochemical
Description: About 15 mg of the sample was weighed accurately, dissolved with 25 mL of the test solvent (10% aqueous acetone solution, pH=4.0 B-R buffer solution, SGF, SIF) via ultrasound for 20 minutes. The solution was divided into four portions and placed in the clear glass vials, followed by sealing. The samples were exposed in different environments and sampled on day 0 and day 5. The purity of each sample was determined by HPLC, and the number of impurities greater than 0.05% was calculated and compared with the samples on day 0. The exposure environments are:
Room temperature and light-proof test, 25° C.; […]
Illumination experiment (4500±500 lx), 25° C.;
Oxidation experiment (3% v/v hydrogen peroxide), 25° C.

[3] = Water solubility at 20° C. determined by HPLC; type: physicochemical
[4] = Comparison of absorption in rats after intragastric administration of free base and salt (plasma pharmacokinetics); type: in vivo, SD rats; conditions: for AUC (0-t) and Cmax, comparison in words: rats, oral, same dose, free base and 6 salts
Description: The blood sample was centrifuged at 8000 RPM for 5 minutes, followed by the isolation of the upper plasma. […] 200 μL of the supernatant was taken and centrifuged again for 10 minutes. 50 μL of the supernatant was injected in a 96-well plate. The plasma drug concentration was determined by LC/MS/MS, and the corresponding pharmacokinetic parameters were calculated.

[5] = Dynamic vapor sorption (DVS), isothermal absorption analysis; type: physicochemical
Description: In the present invention, according to the common knowledge in the art, the amount of water absorption obtained from the dynamic vapor sorption (DVS) pattern is expressed in percentage by weight.
The isothermal absorption analysis (DVS) data was collected from TA Instruments Q5000 TGA. The software for instrument control was Thermal Advantage and software for analysis was Universal Analysis. 1-10 mg of the sample was generally placed in a platinum crucible, and the weight change of the sample during the relative humidity changing from 20% to 80% was recorded by the TA software. Depending on the specifics of the sample, different steps of sample adsorption and desorption were also involved.

[6] = Solubility determined by visual inspection; type: physicochemical; conditions: 20° C.
Description: The solubility was determined as follows: a certain amount of the sample was weighed and the solvent was added thereto in portions with stirring or ultrasonication to accelerate dissolution; the amount of the consumed solvent was recorded once the sample was dissolved. […] A certain volume of the solution was taken, followed by filtration, concentration, dissolved with a certain volume of other suitable solvents and subjected to HPLC measurement to obtain accurate data of the solubility.

[7] = 10 d, High temperature (oven, T=60° C.)
[8] = 10 d, High temperature and high humidity (40° C., 75% relative humidity)
[9] = 10 d, Illumination (25° C., 4500±500 lx)
[10] = 10 d, Oxidation (25° C., closed container with urea hydrogen peroxide)
[11] = 10% aqueous acetone solution, 0 d
[12] = 10% aqueous acetone solution, 0 d, impurities greater than 0.05%
[13] = 10% aqueous acetone solution, 5 d, High temperature
[14] = 10% aqueous acetone solution, 5 d, High temperature and high humidity
[15] = 10% aqueous acetone solution, 5 d, Illumination (4500±500 lx, 25° C.)
[16] = 10% aqueous acetone solution, 5 d, Oxidation (3% v/v hydrogen peroxide, 25° C.)
[17] = B-R Buffer solution (pH=4.0), 0 d, impurities greater than 0.05%
[18] = B-R Buffer solution (pH=4.0), 5 d, High temperature
[19] = B-R Buffer solution (pH=4.0), 5 d, High temperature and high humidity
[20] = B-R Buffer solution (pH=4.0), 5 d, Illumination (4500±500 lx, 25° C.)
[21] = B-R Buffer solution (pH=4.0), 5 d, Oxidation (3% v/v hydrogen peroxide, 25° C.)
[22] = SGF, 0 d, impurities greater than 0.05%
[23] = SGF, 5 d, High temperature and high humidity
[24] = SGF, 5 d, Illumination (4500±500 lx, 25° C.)
[25] = SGF, 5 d, Oxidation (3% v/v hydrogen peroxide, 25° C.)
[26] = SIF, 0 d, impurities greater than 0.05%
[27] = SIF, 5 d, High temperature and high humidity
[28] = SIF, 5 d, Illumination (4500±500 lx, 25° C.)
[29] = SIF, 5 d, Oxidation (3% v/v hydrogen peroxide, 25° C.)
[30] = SD rats, 20 μmol/kg, intragastric administration, plasma
[31] = relative humidity range of 50-80%
[32] = rat, po, 20 umol/kg, SD rats, intragastric administration, plasma

C=C(F)C(=O)Nc1cc2c(Nc3ccc(F)c(Cl)c3)ncnc2cc1OCCCN1CCOCC1.O=S(=O)(O)c1ccccc1
Number of impurities ([1]; 0 d): 2 | Number of impurities [1, 7]: 2 | Number of impurities [1, 8]: 2 | Number of impurities [1, 9]: 2 | Number of impurities [1, 10]: 2 | Purity [2, 11]: 98.2% | Number of impurities [2, 12]: 1 | Number of impurities [2, 13]: 1 | Purity [2, 13]: 97.9% | Number of impurities [2, 14]: 3 | Number of impurities [2, 15]: 1 | Purity [2, 15]: 97.6% | Number of impurities [2, 16]: 7 | Purity [2, 16]: 60.8% | Number of impurities [2, 17]: 2 | Number of impurities [2, 18]: 3 | Purity [2, 18]: 97.2% | Number of impurities [2, 19]: 3 | Purity [2, 19]: 97.2% | Number of impurities [2, 20]: 1 | Number of impurities [2, 21]: 12 | Purity [2, 21]: 38.1% | Number of impurities [2, 22]: 1 | Number of impurities ([2]; SGF, 5 d, High temperature): 2 | Number of impurities [2, 23]: 2 | Purity [2, 23]: 94.4% | Number of impurities [2, 24]: 1 | Number of impurities [2, 25]: 3 | Purity [2, 25]: 81.7% | Purity ([2]; SIF, 0 d): 80.2% | Number of impurities [2, 26]: 2 | Number of impurities ([2]; SIF, 5 d, High temperature): 1 | Purity ([2]; SIF, 5 d, High temperature): 58.7% | Number of impurities [2, 27]: 8 | Purity [2, 27]: 42.0% | Number of impurities [2, 28]: 9 | Purity [2, 28]: 10.0% | Purity [2, 29]: Complete | water solubility at 20° C. determined by HPLC [3]: 60.4 µg/mL | AUC (0-t) [4, 30]: 972.26 ± 291.88 µM·min | MRT (0-T) [4, 30]: 5.9522 ± 0.2533 h | Tmax [4, 30]: 1.333 ± 0.5773 h | t1/2 [4, 30]: 5.0897 ± 2.1273 h | Cmax ([4]; SD rats, 20 μmol/kg, intragastric administration, plasma, listed as monobenzenesulfonate): 2300 ± 470 nM | hygroscopicity, in words [5]: not easy to absorb moisture

C=C(F)C(=O)Nc1cc2c(Nc3ccc(F)c(Cl)c3)ncnc2cc1OCCCN1CCOCC1.O.O.O.O=C(O)CC(O)(CC(=O)O)C(=O)O [crystal form 10 of the trihydrate]
water eliminated by DVS ([5]; below a relative humidity of 50%): 3.5% | stability of the hydrate (DVS), in words [5, 31]: stable | weight change (water absorbed) by DVS [5, 31]: 1.1%

C=C(F)C(=O)Nc1cc2c(Nc3ccc(F)c(Cl)c3)ncnc2cc1OCCCN1CCOCC1.O=S(=O)(O)O
visual solubility in water [6]: 1000 to 2000 µg/mL | AUC (0-t) [4, 30]: 591.00 ± 29.76 µM·min | MRT (0-T) [4, 30]: 5.7252 ± 0.7072 h | Tmax [4, 30]: 1.167 ± 0.2887 h | t1/2 [4, 30]: 3.8468 ± 2.704 h | Cmax ([4]; SD rats, 20 μmol/kg, intragastric administration, plasma, listed as monosulfate): 1660 ± 270 nM | hygroscopicity, in words [5]: fairly hygroscopic

C=C(F)C(=O)Nc1cc2c(Nc3ccc(F)c(Cl)c3)ncnc2cc1OCCCN1CCOCC1.Cl.O
water solubility at 20° C. determined by HPLC [3]: 51.5 µg/mL | AUC (0-t) [4, 30]: 507.89 ± 66.81 µM·min | MRT (0-T) [4, 30]: 6.8127 ± 1.364 h | Tmax [4, 30]: 1.167 ± 0.2887 h | t1/2 [4, 30]: 4.5078 ± 1.56 h | Cmax ([4]; SD rats, 20 μmol/kg, intragastric administration, plasma, listed as monohydrochloride monohydrate): 980 ± 60 nM | AUC (0-t) and Cmax, comparison in words [4]: relatively low

C=C(F)C(=O)Nc1cc2c(Nc3ccc(F)c(Cl)c3)ncnc2cc1OCCCN1CCOCC1 [N-[4-(3-chloro-4-fluoroanilino)]-7-(3-morpholinopropoxy)-6-(2-fluoroacrylamido)-quinazoline, reference compound]
Number of impurities ([1]; 0 d): 1 | Number of impurities [1, 7]: 2 | Purity [1, 7]: 99.0% | Number of impurities [1, 8]: 3 | Purity [1, 8]: 99.0% | Number of impurities [1, 9]: 2 | Purity [1, 9]: 99.0% | Number of impurities [1, 10]: 3 | Purity [1, 10]: 99.0% | Purity [2, 11]: 93.4% | Number of impurities [2, 12]: 2 | Number of impurities [2, 13]: 2 | Purity [2, 13]: 83.1% | Number of impurities [2, 14]: 6 | Purity [2, 14]: 13.3% | Number of impurities [2, 15]: 4 | Purity [2, 15]: 61.5% | Purity [2, 16]: Complete | Purity ([2]; B-R Buffer solution (pH=4.0), 0 d): 99.0% | Number of impurities [2, 17]: 1 | Number of impurities [2, 18]: 1 | Purity [2, 18]: 99.0% | Number of impurities [2, 19]: 4 | Purity [2, 19]: 95.0% | Number of impurities [2, 20]: 1 | Purity [2, 20]: 99.0% | Number of impurities [2, 21]: 13 | Purity [2, 21]: 40.6% | Purity ([2]; SGF, 0 d): 99.0% | Number of impurities [2, 22]: 2 | Number of impurities ([2]; SGF, 5 d, High temperature): 2 | Purity ([2]; SGF, 5 d, High temperature): 99.0% | Number of impurities [2, 23]: 4 | Purity [2, 23]: 94.2% | Number of impurities [2, 24]: 2 | Purity [2, 24]: 99.0% | Number of impurities [2, 25]: 3 | Purity [2, 25]: 84.3% | Purity ([2]; SIF, 0 d): 88.9% | Number of impurities [2, 26]: 1 | Number of impurities ([2]; SIF, 5 d, High temperature): 2 | Purity ([2]; SIF, 5 d, High temperature): 85.6% | Number of impurities [2, 27]: 4 | Purity [2, 27]: 81.9% | Number of impurities [2, 28]: 18 | Purity [2, 28]: 50.0% | Number of impurities [2, 29]: 5 | Purity [2, 29]: 62.7% | AUC (0-t) ([4]; rat, po, 20 umol/kg, SD rats, 20 μmol/kg, intragastric administration, plasma, read-out: AUC (0-t) (converted)): 123 µM·min | MRT last ([4]; rat, po, 20 umol/kg, SD rats, 20 μmol/kg, intragastric administration, plasma, read-out: MRT (0-T) (converted)): 6.66 h | Tmax ([4]; rat, po, 20 umol/kg, SD rats, 20 μmol/kg, intragastric administration, plasma, read-out: Tmax (converted)): 1 h | Cmax [4, 32]: 310 ± 70 nM | half-life [4, 32]: 4.28 ± 1.77 h

C=C(F)C(=O)Nc1cc2c(Nc3ccc(F)c(Cl)c3)ncnc2cc1OCCCN1CCOCC1.O=S(=O)(O)O.O=S(=O)(O)O [disulfate of the quinazoline derivative]
visual solubility in water [6]: 910 to 1000 µg/mL

C=C(F)C(=O)Nc1cc2c(Nc3ccc(F)c(Cl)c3)ncnc2cc1OCCCN1CCOCC1.O=C(O)CC(O)(CC(=O)O)C(=O)O [crystal form 13 of the monocitrate]
weight change (water absorbed) by DVS ([5]; relative humidity range of 20-80%): 0.2%

C=C(F)C(=O)Nc1cc2c(Nc3ccc(F)c(Cl)c3)ncnc2cc1OCCCN1CCOCC1.O.O.O=C(O)CC(O)(CC(=O)O)C(=O)O [crystal form 5 of the dihydrate]
weight change (water absorbed) by DVS ([5]; relative humidity range of 0-80%): 0.4%

C=C(F)C(=O)Nc1cc2c(Nc3ccc(F)c(Cl)c3)ncnc2cc1OCCCN1CCOCC1.O.O.O=C(O)CC(O)(CC(=O)O)C(=O)O [crystal form 7 of the dihydrate]
weight change (water absorbed) by DVS ([5]; relative humidity range of 10-80%): 0.38%

C=C(F)C(=O)Nc1cc2c(Nc3ccc(F)c(Cl)c3)ncnc2cc1OCCCN1CCOCC1.O=C(O)[C@H](O)[C@@H](O)[C@H](O)[C@H](O)CO
water solubility at 20° C. determined by HPLC [3]: 51.4 µg/mL | AUC (0-t) [4, 30]: 484.40 ± 201.71 µM·min | MRT (0-T) [4, 30]: 6.2613 ± 2.5515 h | Tmax [4, 30]: 1.333 ± 0.5773 h | t1/2 [4, 30]: 3.5572 ± 0.3487 h | Cmax ([4]; SD rats, 20 μmol/kg, intragastric administration, plasma, listed as mono-D-gluconate): 1120 ± 280 nM | AUC (0-t) and Cmax, comparison in words [4]: relatively low

C=C(F)C(=O)Nc1cc2c(Nc3ccc(F)c(Cl)c3)ncnc2cc1OCCCN1CCOCC1.O.O.O=C(O)CC(O)(CC(=O)O)C(=O)O [crystal form 11 of the dihydrate]
stability of the hydrate (DVS), in words [5, 31]: stable | weight change (water absorbed) by DVS [5, 31]: 5.3%
